Laboratory results taken from US11884676B2, “Substituted pyrimido[1,2-b]pyridazines as positive allosteric modulators of the muscarinic acetylcholine receptor M4” (Vanderbilt University, priority 2020, dated 2024).

Molecular target: T1, Human M4 (Homo sapiens, UniProt P08173)
T1 construct: expressed in transfected cells
T1 sequence (P08173 1-479): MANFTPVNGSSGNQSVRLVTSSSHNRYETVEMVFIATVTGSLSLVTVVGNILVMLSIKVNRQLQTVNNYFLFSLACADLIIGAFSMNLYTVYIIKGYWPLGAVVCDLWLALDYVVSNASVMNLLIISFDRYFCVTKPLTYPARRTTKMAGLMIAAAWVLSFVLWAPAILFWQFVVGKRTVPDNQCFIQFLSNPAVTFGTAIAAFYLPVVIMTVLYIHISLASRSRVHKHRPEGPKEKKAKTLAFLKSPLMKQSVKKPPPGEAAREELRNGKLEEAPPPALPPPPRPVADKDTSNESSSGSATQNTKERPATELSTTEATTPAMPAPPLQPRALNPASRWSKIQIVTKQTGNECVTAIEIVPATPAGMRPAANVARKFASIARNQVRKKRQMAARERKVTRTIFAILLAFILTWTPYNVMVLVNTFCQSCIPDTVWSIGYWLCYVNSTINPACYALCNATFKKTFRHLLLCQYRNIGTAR
Assay: mAChR M4 cell-based functional assay (calcium flux, PAM mode)
Set-up: Emax: dose or concentration left out as unconfirmed
Details: for Emax at 30 µM: CHO-K1, % ACh maximum at 30 μM; for Emax at 30 µM / EC50: hM4-Gqi5 CHO-K1 cells; for EC50: concentration-dependent increase in the EC20 acetylcholine response
Procedure, shortened: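 PAM potency (EC50) and Emax came from four-parameter fits of the rise in EC20 acetylcholine-evoked calcium signal (Fluo-4, FDSS, 1 Hz). Human M4/Gqi5 CHO-K1 stable line; 11-point 1:3 compound series preceded ACh EC20 addition at 144 s, with EC80 ACh added at 230 s.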

Row | SMILES | Emax at 30 µM [%] | EC50 [µM] | Emax (CHO-K1, read-out: Human M4 Emax (%)*) [%]
1 | Cc1cc2nccc(=O)n2nc1N1CC[C@@H](Oc2ccc3c(c2)OCCO3)[C@H](C)C1 (single isomer, unassigned) [Compound 114, 7-((3R,4R) or (3S,4S))-4-((2,3-dihydrobenzo[b][1,4]dioxin-6-yl)oxy)-3-methylpiperidin-1-yl)-8-methyl-4H-pyrimido[1,2-b]pyridazin-4-one] | 102 | 0.16 | –
2 | [2H]C1(Oc2ccc3c(c2)OCO3)CCN(c2nn3c(=O)cc(C(F)(F)F)nc3cc2C)CC1 [Compound 63, 7-(4-(benzo[d][1,3]dioxol-5-yloxy)piperidin-1-yl-4-d)-8-methyl-2-(trifluoromethyl)-4H-pyrimido[1,2-b]pyridazin-4-one] | 102 | 0.342 | –
3 | [2H]C1([2H])Oc2ccc(OC3CCN(c4nn5c(=O)c(C6CC6)cnc5cc4C)CC3)cc2OC1([2H])[2H] [Compound 30, 3-cyclopropyl-7-(4-((2,3-dihydrobenzo[b][1,4]dioxin-6-yl-2,2,3,3-d4)oxy)piperidin-1-yl)-8-methyl-4H-pyrimido[1,2-b]pyridazin-4-one] | 80 | 0.073 | –
4 | Cc1cc2nc(C)c(F)c(=O)n2nc1N1CC[C@H](Oc2ccc3c(c2)OCCO3)[C@@H](F)C1 [Compound 37, 7-((3S,4S)-4-((2,3-dihydrobenzo[b][1,4]dioxin-6-yl)oxy)-3-fluoropiperidin-1-yl)-3-fluoro-2,8-dimethyl-4H-pyrimido[1,2-b]pyridazin-4-one] | 105 | 0.134 | –
5 | Cc1cc2nccc(=O)n2nc1N1CC[C@H](Oc2ccc3c(c2)OCCO3)[C@@H](C)C1 (single isomer, unassigned) [Compound 115, 7-((3S,4S) or (3R, 4R))-4-((2,3-dihydrobenzo[b][1,4]dioxin-6-yl)oxy)-3-methylpiperidin-1-yl)-8-methyl-4H-pyrimido[1,2-b]pyridazin-4-one] | 78 | 1.56 | –
6 | [2H]C1([2H])Oc2ccc(O[C@H]3CCN(c4nn5c(=O)cc(COC)nc5c(C)c4C)[C@H](C)C3)cc2OC1([2H])[2H] [Compound 133, 7-((2R,4S)-4-((2,3-dihydrobenzo[b][1,4]dioxin-6-yl-2,2,3,3-d4)oxy)-2-methylpiperidin-1-yl)-2-(methoxymethyl)-8,9-dimethyl-4H-pyrimido[1,2-b]pyridazin-4-one] | 105 | 0.096 | –
7 | [2H]C1(Oc2ccc3c(c2)OCO3)CCN(c2nn3c(=O)ccnc3cc2C)CC1 [Compound 68, 7-(4-(benzo[d][1,3]dioxol-5-yloxy)piperidin-1-yl-4-d)-8-methyl-4H-pyrimido[1,2-b]pyridazin-4-one] | 91 | 0.288 | –
8 | Cc1c(N2CCC(Oc3ccc(Cl)cc3)CC2)nn2c(=O)ccnc2c1C [Compound 87] | – | 0.268 | 93
9 | Cc1cc2nccc(=O)n2nc1N1CC[C@@H](Oc2ccc3c(c2)OCCC3)[C@H](F)C1 [Compound 57, 7-((3R,4R)-4-(chroman-7-yloxy)-3-fluoropiperidin-1-yl)-8-methyl-4H-pyrimido[1,2-b]pyridazin-4-one] | 83 | 0.149 | –
10 | [2H]C1([2H])Oc2ccc(OC3CCN(c4nn5c(=O)ccnc5cc4C)CC3)cc2OC1([2H])[2H] [Compound 1, 7-(4-((2,3-Dihydrobenzo[b][1,4]dioxin-6-yl-2,2,3,3-d4)oxy)piperidin-1-yl)-8-methyl-4H-pyrimido[1,2-b]pyridazin-4-one] | 91 | 0.13 | –
11 | Cc1cc2nccc(=O)n2nc1N1CC[C@@H](Oc2ccc3c(c2)OCCO3)C[C@H]1C [Compound 116, 7-((2R,4R)-4-((2,3-dihydrobenzo[b][1,4]dioxin-6-yl)oxy)-2-methylpiperidin-1-yl)-8-methyl-4H-pyrimido[1,2-b]pyridazin-4-one] | 71 | 1.33 | –
12 | [2H]C1(Oc2ccc3c(c2)OCCCO3)CCN(c2nn3c(=O)cc(C)nc3cc2C)CC1 [Compound 59, 7-(4-((3,4-dihydro-2H-benzo[b][1,4]dioxepin-7-yl)oxy)piperidin-1-yl-4-d)-2,8-dimethyl-4H-pyrimido[1,2-b]pyridazin-4-one] | 85 | 0.059 | –
13 | Cc1cc2nccc(=O)n2nc1N1CC[C@@H](Oc2ccc3c(c2)CCO3)[C@H](F)C1 [Compound 56, 7-((3R,4R)-4-((2,3-dihydrobenzofuran-5-yl)oxy)-3-fluoropiperidin-1-yl)-8-methyl-4H-pyrimido[1,2-b]pyridazin-4-one] | 80 | 0.206 | –
14 | [2H]C1(Oc2ccc(C)cc2)CCN(c2nn3c(=O)ccnc3cc2C)CC1 [Compound 92, 8-methyl-7-(4-(p-tolyloxy)piperidin-1-yl-4-d)-4H-pyrimido[1,2-b]pyridazin-4-one] | 89 | 0.632 | –
15 | Cc1cc(=O)n2nc(N3CCC(Oc4ccc5c(c4)C(=O)N(C)CC5)CC3)c(C)cc2n1 [Compound 73, 2,8-dimethyl-7-(4-((2-methyl-1-oxo-1,2,3,4-tetrahydroisoquinolin-7-yl)oxy)piperidin-1-yl)-4H-pyrimido[1,2-b]pyridazin-4-one] | 85 | 2.63 | –
16 | [2H]C1([2H])Oc2ccc(O[C@@H]3CCN(c4nn5c(=O)ccnc5cc4C)C[C@@H]3F)cc2OC1([2H])[2H] [Compound 111, 7-((3S,4R)-4-((2,3-dihydrobenzo[b][1,4]dioxin-6-yl-2,2,3,3-d4)oxy)-3-fluoropiperidin-1-yl)-8-methyl-4H-pyrimido[1,2-b]pyridazin-4-one] | 106 | 0.067 | –
17 | Cc1c(N2CCC(Oc3ccc4c(c3)OCCO4)CC2)nn2c(=O)ccnc2c1C1CC1 [Compound 20, 9-Cyclopropyl-7-(4-((2,3-dihydrobenzo[b][1,4]dioxin-6-yl-2,2,3,3-d4)oxy)piperidin-1-yl)-8-methyl-4H-pyrimido[1,2-b]pyridazin-4-one] | 81 | 0.172 | –

The next molecules have a lower EC50 than those just listed; values first:

Row | Emax at 30 µM [%] | EC50 [µM] | SMILES | Emax (CHO-K1, read-out: Human M4 Emax (%)*) [%]
18 | 89 | 0.052 | [2H]C1([2H])Oc2ccc(OC3CCN(c4nn5c(=O)cc(CC)nc5c(C)c4C)CC3)cc2OC1([2H])[2H] [Compound 100, 7-(4-((2,3-dihydrobenzo[b][1,4]dioxin-6-yl-2,2,3,3-d4)oxy)piperidin-1-yl)-2-ethyl-8,9-dimethyl-4H-pyrimido[1,2-b]pyridazin-4-one] | –
19 | 96 | 0.016 | [2H]C1(Oc2ccc3c(c2)OCCO3)CCN(c2nn3c(=O)ccnc3c(C)c2C)CC1 [Compound 70, 7-(4-((2,3-dihydrobenzo[b][1,4]dioxin-6-yl)oxy)piperidin-1-yl-4-d)-8,9-dimethyl-4H-pyrimido[1,2-b]pyridazin-4-one] | –
20 | 105 | 0.025 | Cc1c(N2CC[C@H](Oc3ccc4c(c3)OCCO4)C[C@H]2C)nn2c(=O)ccnc2c1C [Compound 134, 7-((2R,4S)-4-((2,3-dihydrobenzo[b][1,4]dioxin-6-yl)oxy)-2-methylpiperidin-1-yl)-8,9-dimethyl-4H-pyrimido[1,2-b]pyridazin-4-one] | –
21 | 80 | 0.044 | [2H]C1(Oc2ccc3c(c2)OC([2H])([2H])C([2H])([2H])O3)CCN(c2nn3c(=O)cc(COC)nc3c(C)c2C)CC1 [Compound 110, 7-(4-((2,3-dihydrobenzo[b][1,4]dioxin-6-yl-2,2,3,3-d4)oxy)piperidin-1-yl-4-d)-2-(methoxymethyl)-8,9-dimethyl-4H-pyrimido[1,2-b]pyridazin-4-one] | –
22 | 76 | 0.019 | [2H]C1([2H])Oc2ccc(OC3CCN(c4nn5c(=O)cc(C(F)F)nc5cc4C)CC3)cc2OC1([2H])[2H] [Compound 8, 2-(Difluoromethyl)-7-(4-((2,3-dihydrobenzo[b][1,4]dioxin-6-yl-2,2,3,3-d4)oxy)piperidin-1-yl)-8-methyl-4H-pyrimido[1,2-b]pyridazin-4-one] | –
23 | 81 | 0.036 | [2H]C1([2H])Oc2ccc(OC3CCN(c4nn5c(=O)cc(C)nc5c(C)c4C)CC3)cc2OC1([2H])[2H] [Compound 5, 7-(4-((2,3-Dihydrobenzo[b][1,4]dioxin-6-yl-2,2,3,3-d4)oxy)piperidin-1-yl)-2,8,9-trimethyl-4H-pyrimido[1,2-b]pyridazin-4-one] | –
24 | 91 | 0.016 | [2H]C1([2H])Oc2ccc(OC3CCN(c4nn5c(=O)cc(C(F)(F)F)nc5cc4C)CC3)cc2OC1([2H])[2H] [Compound 6, 7-(4-((2,3-Dihydrobenzo[b][1,4]dioxin-6-yl-2,2,3,3-d4)oxy)piperidin-1-yl)-8-methyl-2-(trifluoromethyl)-4H-pyrimido[1,2-b]pyridazin-4-one] | –
25 | 101 | 0.022 | [2H]C1([2H])Oc2ccc(OC3CCN(c4nn5c(=O)cc(COC)nc5cc4C)CC3)cc2OC1([2H])[2H] [Compound 14, 7-(4-((2,3-Dihydrobenzo[b][1,4]dioxin-6-yl-2,2,3,3-d4)oxy)piperidin-1-yl)-2-(methoxymethyl)-8-methyl-4H-pyrimido[1,2-b]pyridazin-4-one] | –
